Literature values in publication PMC11249626, “Fluorophore-Labeled Pyrrolones Targeting the Intracellular Allosteric Binding Site of the Chemokine Receptor CCR1” (ACS Pharmacology & Translational Science, 2024).
Like-named read-outs stand apart in the source and are kept apart here.

Experiments:
[1] = biological target: T1, CCR2 (Homo sapiens, UniProt P41597); parameters: method as in PMID 35838163; conditions: membrane-based setup; cited from earlier work
T1 construct: host or cells: HEK293T, transient
T1 sequence (P41597 1-360 isoform P41597-2): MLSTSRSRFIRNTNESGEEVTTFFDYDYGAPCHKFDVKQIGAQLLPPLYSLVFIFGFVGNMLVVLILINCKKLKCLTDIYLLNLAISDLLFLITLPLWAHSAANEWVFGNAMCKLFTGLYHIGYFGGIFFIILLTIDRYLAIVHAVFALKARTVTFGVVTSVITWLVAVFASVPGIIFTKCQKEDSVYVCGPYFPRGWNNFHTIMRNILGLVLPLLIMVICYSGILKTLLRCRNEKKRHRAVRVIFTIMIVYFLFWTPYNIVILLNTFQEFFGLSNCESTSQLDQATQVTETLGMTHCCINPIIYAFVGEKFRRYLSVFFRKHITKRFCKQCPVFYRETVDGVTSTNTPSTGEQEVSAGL

[2] = biological target: T1, CCR2; parameters: method as in PMID 35838163; conditions: cellular setup; cited from earlier work
[3] = biological target: T2, CCR1 (Homo sapiens, UniProt P32246); parameters: Promega pNLF1-C (Nluc) #CCR010TN00; host or cells: HEK293T, transient (PEI); method as in PMID 35838163; conditions: cited from earlier work
T2 sequence (P32246 1-355): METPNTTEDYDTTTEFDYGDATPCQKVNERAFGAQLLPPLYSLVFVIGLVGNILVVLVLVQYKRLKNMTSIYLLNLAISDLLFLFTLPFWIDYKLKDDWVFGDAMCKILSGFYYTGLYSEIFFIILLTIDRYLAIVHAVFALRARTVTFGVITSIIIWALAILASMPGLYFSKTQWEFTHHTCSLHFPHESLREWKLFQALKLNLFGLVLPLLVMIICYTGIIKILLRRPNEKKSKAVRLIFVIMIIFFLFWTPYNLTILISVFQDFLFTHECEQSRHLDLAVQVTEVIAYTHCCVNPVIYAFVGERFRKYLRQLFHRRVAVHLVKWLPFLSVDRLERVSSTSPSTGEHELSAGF

For `CN(C)c1ccc2c(-c3cc(C(=O)NCCOCCOCCn4cc(CNC(=O)c5ccc(Oc6ncc(Cl)cc6NS(=O)(=O)c6ccc(Cl)c(C(F)(F)F)c6)cc5)nn4)ccc3C(=O)[O-])c3ccc(=[N+](C)C)cc-3oc2c1` [compound 7], the Kd [1] is listed as 0.266 µM, the Kd [2] is listed as 0.114 µM and the “KD(CCR1) / binding to CCR1” value [3] is listed as “no relevant binding”.
